Reference: US20260022142A1, “MACROCYCLIC IMMUNOMODULATORS” (Bristol-Myers Squibb Company, priority 2022, published 2026)
Bridge positions count the residues as written; N and C are the ends. Square brackets hold non-standard residues; d marks the D form. Peptide text beside a SMILES is read from it. * marks the point of attachment. ξ: configuration not given here. Phe(4-CONH2) = NC(=O)c1ccc(C[C@H](N)C(=O)O)cc1; Phe(4-COOH) = N[C@@H](Cc1ccc(C(=O)O)cc1)C(=O)O; Bip = N[C@@H](Cc1ccc(-c2ccccc2)cc1)C(=O)O; Ala(2-furyl) = N[C@@H](Cc1ccco1)C(=O)O; Phe(3-Me) = Cc1cccc(C[C@H](N)C(=O)O)c1; Val(3-OH) = CC(C)(O)[C@H](N)C(=O)O; 4Pal = N[C@@H](Cc1ccncc1)C(=O)O; Cha = N[C@@H](CC1CCCCC1)C(=O)O; Thr(3ξ) = CC(O)[C@H](N)C(=O)O; Carboxymethyl = O=C(O)C*; Orn = NCCC[C@H](N)C(=O)O; Aun = NCCCCCCCCCCC(=O)O; Dab = NCC[C@H](N)C(=O)O; AEEA = NCCOCCOCC(=O)O

Biological target: T1, PD-1/PD-L1 interaction (PE-labeled human PD-L1-Ig binding to Jurkat cell line over-expressing human PD-1) (Homo sapiens, UniProt Q15116)
T1 construct: expressed in transfected cells; host or cells: Jurkat
T1 sequence (Q15116 25-288): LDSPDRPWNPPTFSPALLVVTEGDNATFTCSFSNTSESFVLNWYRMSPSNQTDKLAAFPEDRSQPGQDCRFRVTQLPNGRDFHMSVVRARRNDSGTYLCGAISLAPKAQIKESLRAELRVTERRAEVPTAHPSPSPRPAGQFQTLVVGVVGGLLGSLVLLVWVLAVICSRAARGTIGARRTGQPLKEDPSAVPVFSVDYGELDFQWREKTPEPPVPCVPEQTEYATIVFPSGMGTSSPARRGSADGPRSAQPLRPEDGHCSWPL
Test: Jurkat-PD-1 Cell Binding High-Content Screening Assay (CBA)
Format: cell-based
Settings: Jurkat cell line over-expressing human PD-1; PE-labeled PD-L1-Ig 20 nM final; read-out: Jurkat hPD1-PDL1 IC50
Method in brief: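 Jurkat cells over-expressing human PD-1 (8×10^3 per well, DMEM/10% FCS) preincubated with compound 2 h at 37° C, then PE-labeled human PD-L1-Ig (20 nM final) added for 1 h. Cells fixed with paraformaldehyde, Hoechst-stained, and bound fluorescence quantified by high-content imaging.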

SMILES	IC50 [nM]
Cc1cccc(C[C@@H]2NC(=O)[C@H](CC(=O)O)NC(=O)[C@H](Cc3ccc(OCC(=O)O)cc3)NC(=O)[C@H](Cc3ccccc3)NC(=O)CSC[C@@H](C(=O)N[C@@H](CCN)C(=O)NCCCCCCCCCCC(=O)O)NC(=O)[C@H](Cc3cnc[nH]3)NC(=O)[C@H](C(C)O)NC(=O)[C@H](CC3CCCCC3)NC(=O)[C@H](CCN)NC(=O)[C@@H](CC(C)C)NC(=O)[C@H](CCCN)NC(=O)[C@H](Cc3ccc(OCC(=O)O)cc3)NC(=O)[C@H](Cc3ccc(-c4ccccc4)cc3)NC(=O)[C@H](Cc3ccc(C(=O)O)cc3)NC2=O)c1 (stereo partly drawn) [Compound 3709] ({CH2CO}-FY(Carboxymethyl)D[Phe(3-Me)][Phe(4-COOH)][Bip]Y(Carboxymethyl)[Orn][dL][Dab][Cha][Thr(3ξ)]HC[Dab][Aun]-OH; thioether N-14)	54.5
CC(=O)NCC[C@@H]1NC(=O)[C@H](C(C)C)NC(=O)[C@H](CC2CCCCC2)NC(=O)[C@H](CCN)NC(=O)[C@@H](CC(C)C)NC(=O)[C@H](CCC(=O)O)NC(=O)[C@H](C(C)C)NC(=O)[C@H](Cc2ccc(-c3ccccc3)cc2)NC(=O)[C@H](CC(C)C)NC(=O)[C@H](Cc2c[nH]c3ccccc23)NC(=O)[C@H](CC(=O)O)NC(=O)[C@H](Cc2ccc(OCC(=O)O)cc2)NC(=O)[C@H](C(C)O)NC(=O)CSC[C@@H](C(=O)NCCOCCOCC(=O)NCCCCCCCCCCC(=O)O)NC1=O (stereo partly drawn) [Compound 3710] ({CH2CO}-[Thr(3ξ)]Y(Carboxymethyl)DWL[Bip]VE[dL][Dab][Cha]V[Dab](Ac)C[AEEA][Aun]-OH; thioether N-14)	82.2
CC(=O)NCC[C@@H]1NC(=O)[C@H](C(C)C)NC(=O)[C@H](CC2CCCCC2)NC(=O)[C@H](CCN)NC(=O)[C@@H](CC(C)C)NC(=O)[C@H](CCC(=O)O)NC(=O)[C@H](C(C)C)NC(=O)[C@H](Cc2ccc(-c3ccccc3)cc2)NC(=O)[C@H](CC(C)C)NC(=O)[C@H](Cc2c[nH]c3ccccc23)NC(=O)[C@H](CC(=O)O)NC(=O)[C@H](Cc2ccc(OCC(=O)O)cc2)NC(=O)[C@H](Cc2ccc(OCC(=O)O)cc2)NC(=O)CSC[C@@H](C(=O)NCCOCCOCC(=O)NCCCCCCCCCCC(=O)O)NC1=O [Compound 3711] ({CH2CO}-Y(Carboxymethyl)Y(Carboxymethyl)DWL[Bip]VE[dL][Dab][Cha]V[Dab](Ac)C[AEEA][Aun]-OH; thioether N-14)	91.5
Cc1cccc(C[C@@H]2NC(=O)[C@H](CC(=O)O)NC(=O)[C@H](Cc3ccc(OCC(=O)O)cc3)NC(=O)[C@H](Cc3ccncc3)NC(=O)CSC[C@@H](C(=O)N[C@@H](CCN)C(=O)NCCCCCCCCCCC(=O)O)NC(=O)[C@H](CO)NC(=O)[C@H](C(C)(C)O)NC(=O)[C@H](CC3CCCCC3)NC(=O)[C@H](CCN)NC(=O)[C@@H](CC(C)C)NC(=O)[C@H](CCCN)NC(=O)[C@H](Cc3ccc(C(=O)O)cc3)NC(=O)[C@H](Cc3ccc(-c4ccccc4)cc3)NC(=O)[C@H](Cc3ccc(C(=O)O)cc3)NC2=O)c1 [Compound 3712] ({CH2CO}-[4Pal]Y(Carboxymethyl)D[Phe(3-Me)][Phe(4-COOH)][Bip][Phe(4-COOH)][Orn][dL][Dab][Cha][Val(3-OH)]SC[Dab][Aun]-OH; thioether N-14)	129
Cc1cccc(C[C@@H]2NC(=O)[C@H](CC(=O)O)NC(=O)[C@H](Cc3ccc(OCC(=O)O)cc3)NC(=O)[C@H](Cc3ccncc3)NC(=O)CSC[C@@H](C(=O)N[C@@H](CCN)C(=O)NCCCCCCCCCCC(=O)O)NC(=O)[C@H](CO)NC(=O)[C@H](C(C)(C)O)NC(=O)[C@H](CC3CCCCC3)NC(=O)[C@H](CCN)NC(=O)[C@@H](CC(C)C)NC(=O)[C@H](CCCN)NC(=O)[C@H](Cc3ccc(C(=O)O)cc3)NC(=O)[C@H](Cc3ccc(-c4ccccc4)cc3)NC(=O)[C@H](Cc3ccc(C(=O)O)cc3)NC2=O)c1 [Compound 3716] ({CH2CO}-[4Pal]Y(Carboxymethyl)D[Phe(3-Me)][Phe(4-COOH)][Bip][Phe(4-COOH)][Orn][dL][Dab][Cha][Val(3-OH)]SC[Dab][Aun]-OH; thioether N-14)	165
Cc1cccc(C[C@@H]2NC(=O)[C@H](CC(=O)O)NC(=O)[C@H](Cc3ccc(OCC(=O)O)cc3)NC(=O)[C@H](Cc3ccco3)NC(=O)CSC[C@@H](C(=O)N[C@@H](CCN)C(=O)NCCCCCCCCCCC(=O)O)NC(=O)[C@H](CO)NC(=O)[C@H](C(C)(C)O)NC(=O)[C@H](CC3CCCCC3)NC(=O)[C@H](CCN)NC(=O)[C@@H](CC(C)C)NC(=O)[C@H](CCCN)NC(=O)[C@H](Cc3ccc(O)cc3)NC(=O)[C@H](Cc3ccc(-c4ccccc4)cc3)NC(=O)[C@H](Cc3ccc(C(N)=O)cc3)NC2=O)c1 [Compound 3719] ({CH2CO}-[Ala(2-furyl)]Y(Carboxymethyl)D[Phe(3-Me)][Phe(4-CONH2)][Bip]Y[Orn][dL][Dab][Cha][Val(3-OH)]SC[Dab][Aun]-OH; thioether N-14)	29.8
Cc1cccc(C[C@@H]2NC(=O)[C@H](CC(=O)O)NC(=O)[C@H](Cc3ccc(OCC(=O)O)cc3)NC(=O)[C@H](Cc3ccncc3)NC(=O)CSC[C@@H](C(=O)N[C@@H](CO)C(=O)NCCCCCCCCCCC(=O)O)NC(=O)[C@H](CO)NC(=O)[C@H](C(C)(C)O)NC(=O)[C@H](CC3CCCCC3)NC(=O)[C@H](Cc3cnc[nH]3)NC(=O)[C@@H](CC(C)C)NC(=O)[C@H](CCCN)NC(=O)[C@H](Cc3ccc(OCC(=O)O)cc3)NC(=O)[C@H](Cc3ccc(-c4ccccc4)cc3)NC(=O)[C@H](Cc3ccc(OCC(=O)O)cc3)NC2=O)c1 [Compound 3722] ({CH2CO}-[4Pal]Y(Carboxymethyl)D[Phe(3-Me)]Y(Carboxymethyl)[Bip]Y(Carboxymethyl)[Orn][dL]H[Cha][Val(3-OH)]SCS[Aun]-OH; thioether N-14)	41.2

The next molecules have a lower IC50 than those just listed; values first:

IC50 [nM]	SMILES
12.4	Cc1cccc(C[C@@H]2NC(=O)[C@H](CC(=O)O)NC(=O)[C@H](Cc3ccc(OCC(=O)O)cc3)NC(=O)[C@H](CCN)NC(=O)CSC[C@@H](C(=O)N[C@@H](CCN)C(=O)NCCCCCCCCCCC(=O)O)NC(=O)[C@H](CO)NC(=O)[C@H](C(C)(C)O)NC(=O)[C@H](CC3CCCCC3)NC(=O)[C@H](Cc3c[nH]cn3)NC(=O)[C@@H](CC(C)C)NC(=O)[C@H](CCCN)NC(=O)[C@H](Cc3ccc(OCC(=O)O)cc3)NC(=O)[C@H](Cc3ccc(-c4ccccc4)cc3)NC(=O)[C@H](Cc3ccc(C(=O)O)cc3)NC2=O)c1 [Compound 3714] ({CH2CO}-[Dab]Y(Carboxymethyl)D[Phe(3-Me)][Phe(4-COOH)][Bip]Y(Carboxymethyl)[Orn][dL]H[Cha][Val(3-OH)]SC[Dab][Aun]-OH; thioether N-14)
5	Cc1cccc(C[C@@H]2NC(=O)[C@H](CC(=O)O)NC(=O)[C@H](Cc3ccc(OCC(=O)O)cc3)NC(=O)[C@H](Cc3ccncc3)NC(=O)CSC[C@@H](C(=O)N[C@@H](CCN)C(=O)NCCCCCCCCCCC(=O)O)NC(=O)[C@H](CO)NC(=O)[C@H](C(C)(C)O)NC(=O)[C@H](CC3CCCCC3)NC(=O)[C@H](CCN)NC(=O)[C@@H](CC(C)C)NC(=O)[C@H](CCCN)NC(=O)[C@H](Cc3ccc(O)cc3)NC(=O)[C@H](Cc3ccc(-c4ccccc4)cc3)NC(=O)[C@H](Cc3ccc(C(N)=O)cc3)NC2=O)c1 [Compound 3717] ({CH2CO}-[4Pal]Y(Carboxymethyl)D[Phe(3-Me)][Phe(4-CONH2)][Bip]Y[Orn][dL][Dab][Cha][Val(3-OH)]SC[Dab][Aun]-OH; thioether N-14)
8.8	Cc1cccc(C[C@@H]2NC(=O)[C@H](CC(=O)O)NC(=O)[C@H](Cc3ccc(OCC(=O)O)cc3)NC(=O)[C@H](C(C)O)NC(=O)CSC[C@@H](C(=O)N[C@@H](CCN)C(=O)NCCCCCCCCCCC(=O)O)NC(=O)[C@H](CO)NC(=O)[C@H](C(C)(C)O)NC(=O)[C@H](CC3CCCCC3)NC(=O)[C@H](CCN)NC(=O)[C@@H](CC(C)C)NC(=O)[C@H](CCCN)NC(=O)[C@H](Cc3ccc(O)cc3)NC(=O)[C@H](Cc3ccc(-c4ccccc4)cc3)NC(=O)[C@H](Cc3ccc(C(N)=O)cc3)NC2=O)c1 (stereo partly drawn) [Compound 3718] ({CH2CO}-[Thr(3ξ)]Y(Carboxymethyl)D[Phe(3-Me)][Phe(4-CONH2)][Bip]Y[Orn][dL][Dab][Cha][Val(3-OH)]SC[Dab][Aun]-OH; thioether N-14)
11.7	Cc1cccc(C[C@@H]2NC(=O)[C@H](CC(=O)O)NC(=O)[C@H](Cc3ccc(OCC(=O)O)cc3)NC(=O)[C@H](C(C)O)NC(=O)CSC[C@@H](C(=O)N[C@@H](CCN)C(=O)NCCCCCCCCCCC(=O)O)NC(=O)[C@H](CO)NC(=O)[C@H](C(C)(C)O)NC(=O)[C@H](CC3CCCCC3)NC(=O)[C@H](Cc3cnc[nH]3)NC(=O)[C@@H](CC(C)C)NC(=O)[C@H](CCCN)NC(=O)[C@H](Cc3ccc(OCC(=O)O)cc3)NC(=O)[C@H](Cc3ccc(-c4ccccc4)cc3)NC(=O)[C@H](Cc3ccc(OCC(=O)O)cc3)NC2=O)c1 (stereo partly drawn) [Compound 3720] ({CH2CO}-[Thr(3ξ)]Y(Carboxymethyl)D[Phe(3-Me)]Y(Carboxymethyl)[Bip]Y(Carboxymethyl)[Orn][dL]H[Cha][Val(3-OH)]SC[Dab][Aun]-OH; thioether N-14)
18.4	Cc1cccc(C[C@@H]2NC(=O)[C@H](CC(=O)O)NC(=O)[C@H](Cc3ccc(OCC(=O)O)cc3)NC(=O)[C@H](Cc3ccncc3)NC(=O)CSC[C@@H](C(=O)N[C@@H](CCN)C(=O)NCCCCCCCCCCC(=O)O)NC(=O)[C@H](CO)NC(=O)[C@H](C(C)(C)O)NC(=O)[C@H](CC3CCCCC3)NC(=O)[C@H](Cc3cnc[nH]3)NC(=O)[C@@H](CC(C)C)NC(=O)[C@H](CCCN)NC(=O)[C@H](Cc3ccc(OCC(=O)O)cc3)NC(=O)[C@H](Cc3ccc(-c4ccccc4)cc3)NC(=O)[C@H](Cc3ccc(OCC(=O)O)cc3)NC2=O)c1 [Compound 3721] ({CH2CO}-[4Pal]Y(Carboxymethyl)D[Phe(3-Me)]Y(Carboxymethyl)[Bip]Y(Carboxymethyl)[Orn][dL]H[Cha][Val(3-OH)]SC[Dab][Aun]-OH; thioether N-14)
